Source: the supplement of paper PMC10307832

Key:
Experiment in all cases: relative viability (nuclei count vs DMSO), 5 days (fraction); higher = more cells survive
[1] = compound: O=C(Nc1c[nH]nc1-c1nc2ccc(CN3CCOCC3)cc2[nH]1)NC1CC1 [AT9283] + CC(=O)c1c(C)c2cnc(Nc3ccc(N4CCNCC4)cn3)nc2n(C2CCCC2)c1=O [Palbociclib] (partner 0.5 µM)
In short: (§1)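 Relative viability was taken as the ratio of nuclei in treated wells to nuclei in vehicle wells. Lung cancer cell lines in 1536-well plates received compounds by pin tool one day after seeding, either one drug alone or a fixed anchor-drug dose plus five library-drug doses (not always all listed) in √10 steps. Nuclei were counted on 4× images after 5 days of treatment, and values are medians of duplicate plates.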

[2] = compound: O=C(Nc1c[nH]nc1-c1nc2ccc(CN3CCOCC3)cc2[nH]1)NC1CC1 [AT9283] + N=C(N)NC(=N)NCCc1ccccc1 [Phenformin] (partner 250 µM)
In short: as §1

[3] = compound: C#Cc1cccc(Nc2ncnc3cc(OCCOC)c(OCCOC)cc23)c1 [Erlotinib] + CC(=O)c1c(C)c2cnc(Nc3ccc(N4CCNCC4)cn3)nc2n(C2CCCC2)c1=O [Palbociclib] (partner 0.5 µM)
In short: as §1

[4] = compound: O=C(Nc1c[nH]nc1-c1nc2ccc(CN3CCOCC3)cc2[nH]1)NC1CC1 [AT9283] + C[C@]1(O)C[C@@H](c2nc(-c3ccc4ccc(-c5ccccc5)nc4c3)c3c(N)nccn32)C1 [Linsitinib] (partner 1 µM)
In short: as §1

[5] = compound: C#Cc1cccc(Nc2ncnc3cc(OCCOC)c(OCCOC)cc23)c1 [Erlotinib] + CC1(C)CCC(c2ccc(Cl)cc2)=C(CN2CCN(c3ccc(C(=O)NS(=O)(=O)c4ccc(N[C@H](CCN5CCOCC5)CSc5ccccc5)c(S(=O)(=O)C(F)(F)F)c4)cc3)CC2)C1 [Navitoclax] (partner 0.5 µM)
In short: as §1

Cell Line	relative viability ([1]; first compound 0.003 µM)	relative viability ([1]; first compound 0.03 µM)	relative viability ([1]; first compound 0.09487 µM)	relative viability ([1]; first compound 0.3 µM)	relative viability ([2]; first compound 0.003 µM)	relative viability ([2]; first compound 0.03 µM)	relative viability ([2]; first compound 0.09487 µM)	relative viability ([2]; first compound 0.3 µM)	relative viability ([3]; first compound 0.02 µM)	relative viability ([3]; first compound 0.2 µM)	relative viability ([3]; first compound 0.6325 µM)	relative viability ([3]; first compound 2 µM)	relative viability ([4]; first compound 0.003 µM)	relative viability ([4]; first compound 0.03 µM)	relative viability ([4]; first compound 0.09487 µM)	relative viability ([4]; first compound 0.3 µM)	relative viability ([5]; first compound 0.02 µM)	relative viability ([5]; first compound 0.2 µM)	relative viability ([5]; first compound 0.6325 µM)	relative viability ([5]; first compound 2 µM)
NCI-H2405	0.519	0.407	0.284	0.196	0.415	0.362	0.28	0.251	0.534	0.521	0.535	0.54	1.06	0.632	0.315	0.221	0.915	0.902	1.01	0.78
NCI-H3122	0.187	0.208	0.169	0.153	0.359	0.334	0.203	0.138	0.195	0.215	0.159	0.195	0.963	0.885	0.346	0.166	1.05	1.04	1.01	1.03
PC-3 [JPC-3]	0.602	0.533	0.575	0.484	0.478	0.476	0.423	0.377	0.536	0.473	0.339	0.376	0.94	1.03	0.74	0.521	0.653	0.443	0.349	0.295
PC-14	0.526	0.273	0.105	0.0809	0.51	0.468	0.197	0.109	0.173	0.0873	0.0953	0.0635	1.04	0.729	0.438	0.138	0.935		0.391	0.31
RERF-LC-KJ	1.17	0.77	0.475	0.302	0.408	0.364	0.25	0.242	1.02	1.01	0.93	0.759	0.995	0.508	0.264	0.208	0.861	0.663	0.583	0.771
SK-LU-1	0.416	0.373	0.279	0.283	0.582	0.431	0.179	0.179	0.372	0.432	0.376	0.357	1.1	0.349	0.323	0.356	1.07	1.36	0.752	0.733
SK-MES-1	0.365	0.311	0.255	0.2	0.748	0.595	0.318	0.243	0.35	0.257	0.327	0.293	1.07	0.933	0.846	0.17	1.35	1.21		0.574
SW 1573	0.333	0.158	0.173	0.121	0.426	0.163	0.156	0.121	0.38	0.362	0.37	0.355	0.917	0.413	0.223	0.184	0.922	1.05		0.896
UMC-11	0.327	0.235	0.243	0.186	0.308	0.184	0.178	0.171	0.364	0.328	0.345	0.382	0.849	0.138	0.14	0.168	0.337	0.281	0.336	0.3
